The structures appear in SMILES notation. Inconclusive results and toxic doses are left out.

Drawing on PubChem BioAssay AID248 (DTP/NCI, 2004), this text covers T/C for 14 compounds.

This assay deals with L1210 leukemia ip in BDF1 mice, survival T/C. Description: NCI In Vivo Anticancer Drug Screen. Data for tumor model L1210 Leukemia (intraperitoneal) in B6D2F1 (BDF1) mice. Conditions: endpoint: mean survival time, higher = longer survival. A digest of the protocol: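 Transplantable tumor model; survival measured in treated vs vehicle control mice. Value = treated/control.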

Setting [1] is: dose: 100.0 mg/kg/injection, schedule: Q04DX002 (ip), vehicle: Klucel (hydroxypropylcellulose) (HPC).
The mark [2] stands for this setting: dose: 200.0 mg/kg/injection, schedule: Q04DX002 (ip), vehicle: Klucel (hydroxypropylcellulose) (HPC).
Where [3] appears, read: dose: 400.0 mg/kg/injection, schedule: Q04DX002 (ip), vehicle: Klucel (hydroxypropylcellulose) (HPC).
The mark [4] stands for this setting: dose: 200.0 mg/kg/injection, schedule: Q01DX009 (ip), vehicle: saline with Tween-80.
The mark [5] stands for this setting: dose: 100.0 mg/kg/injection, schedule: Q01DX001 (ip), vehicle: saline.
[6] abbreviates: dose: 200.0 mg/kg/injection, schedule: Q01DX001 (ip), vehicle: saline.
[7] abbreviates: dose: 400.0 mg/kg/injection, schedule: Q01DX001 (ip), vehicle: saline.
The mark [8] stands for this setting: dose: 100.0 mg/kg/injection, schedule: Q04DX003 (ip), vehicle: saline.
Where [9] appears, read: dose: 200.0 mg/kg/injection, schedule: Q04DX003 (ip), vehicle: saline.
Setting [10] is: dose: 400.0 mg/kg/injection, schedule: Q04DX003 (ip), vehicle: saline.

Regarding `COc1ccc(-c2nc3ncnc(N)c3[nH]2)cc1`, the T/C reads like this: (dose: 12.5 mg/kg/injection, schedule: Q01DX001 (ip), vehicle: saline with Tween-80) 102 % of control; (dose: 25.0 mg/kg/injection, schedule: Q01DX001 (ip), vehicle: saline with Tween-80) 109 % of control; (dose: 50.0 mg/kg/injection, schedule: Q01DX001 (ip), vehicle: saline with Tween-80) 106 % of control.

For `CC(C)OC(=O)NN1CCCCCC1`, the T/C is 92 % of control under setting [1], 105 % of control under setting [2] and 96 % of control under setting [3].

For the compound `CC(=O)N1CCc2cc(N)ccc21`, the T/C under setting [4] was 103 % of control.

Consider `CC(=O)/C=C/c1ccco1`, for which the T/C is 101 % of control (dose: 12.5 mg/kg/injection, schedule: Q01DX009 (ip), vehicle: DMSO); 97 % of control (dose: 25.0 mg/kg/injection, schedule: Q01DX009 (ip), vehicle: DMSO); 96 % of control (dose: 25.0 mg/kg/injection, schedule: Q04DX003 (ip), vehicle: DMSO); 92 % of control (dose: 50.0 mg/kg/injection, schedule: Q01DX009 (ip), vehicle: DMSO); 108 % of control (dose: 50.0 mg/kg/injection, schedule: Q04DX003 (ip), vehicle: DMSO); 98 % of control (dose: 100.0 mg/kg/injection, schedule: Q04DX003 (ip), vehicle: DMSO).

Turning to `O=C(CCN1CC1)Oc1ccc(Cl)cc1`, the T/C is 97 % of control (dose: 100.0 mg/kg/injection, schedule: Q01DX001 (ip), vehicle: saline with Tween-80); 95 % of control (dose: 200.0 mg/kg/injection, schedule: Q01DX001 (ip), vehicle: saline with Tween-80); 95 % of control (dose: 400.0 mg/kg/injection, schedule: Q01DX001 (ip), vehicle: saline with Tween-80).

As for `C(/C=C\c1ccccc1)=Nc1ccccc1`, the T/C (dose: 100.0 mg/kg/injection, schedule: Q04DX003 (ip), vehicle: saline with Tween-80) was 95 % of control; the T/C (dose: 200.0 mg/kg/injection, schedule: Q04DX003 (ip), vehicle: saline with Tween-80) is 95 % of control; the T/C (dose: 400.0 mg/kg/injection, schedule: Q04DX003 (ip), vehicle: saline with Tween-80) was 92 % of control.

As to `O=C(O)CCC(NC(=O)c1ccc(Cc2ccc(NC(=O)OCc3ccccc3)cc2)cc1)C(=O)O` (stereo not drawn), the T/C (dose: 100.0 mg/kg/injection, schedule: Q01DX009 (ip), vehicle: Klucel (hydroxypropylcellulose) (HPC)) is 96 % of control; the T/C (dose: 100.0 mg/kg/injection, schedule: Q04DX003 (ip), vehicle: Klucel (hydroxypropylcellulose) (HPC)) was 97 % of control; the T/C (dose: 200.0 mg/kg/injection, schedule: Q01DX009 (ip), vehicle: Klucel (hydroxypropylcellulose) (HPC)) is 95 % of control; the T/C (dose: 200.0 mg/kg/injection, schedule: Q04DX003 (ip), vehicle: Klucel (hydroxypropylcellulose) (HPC)) was 94 % of control; the T/C (dose: 400.0 mg/kg/injection, schedule: Q01DX009 (ip), vehicle: Klucel (hydroxypropylcellulose) (HPC)) was 93 % of control; the T/C (dose: 400.0 mg/kg/injection, schedule: Q04DX003 (ip), vehicle: Klucel (hydroxypropylcellulose) (HPC)) is 103 % of control.

Consider `CC(=O)Nc1nc2c(ncn2C2OCC(OC(C)=O)C(OC(C)=O)C2OC(C)=O)c(=O)[nH]1` (stereo not drawn) (tested in a mixture with another compound), for which the T/C under setting [5] was 102 % of control, the T/C under setting [6] is 102 % of control and the T/C under setting [7] is 101 % of control.

Regarding `O=C(N1CCC(CCCc2ccccc2)CC1)C(Cl)(Cl)Cl`, the T/C is, setting by setting: under setting [1], 95 % of control; under setting [2], 95 % of control; under setting [3], 100 % of control.

With `CCCCC(=O)NC1CCCCC1`, the T/C reads like this: (dose: 75.0 mg/kg/injection, schedule: Q01DX001 (ip), vehicle: saline) 101 % of control; (dose: 150.0 mg/kg/injection, schedule: Q01DX001 (ip), vehicle: saline) 95 % of control.

As for `CC1C(=O)CCC2(C)CCC(C)(C)CC12` (stereo not drawn), the T/C by setting is: (dose: 100.0 mg/kg/injection, schedule: Q01DX009 (ip), vehicle: saline with Tween-80) 98 % of control; under setting [8], 105 % of control; under setting [4], 95 % of control; under setting [9], 97 % of control; (dose: 400.0 mg/kg/injection, schedule: Q01DX009 (ip), vehicle: saline with Tween-80) 101 % of control; under setting [10], 103 % of control.

As to `CCCCCCOc1ccc(CC(N)C(=O)O)cc1N(CCCl)CCCl` (stereo not drawn), the T/C by setting is: (dose: 2.5 mg/kg/injection, schedule: Q01DX009 (ip), vehicle: carboxymethylcellulose (CMC)) 119 % of control; (dose: 4.4 mg/kg/injection, schedule: Q01DX001 (ip), vehicle: carboxymethylcellulose (CMC)) 109 % of control; (dose: 6.6 mg/kg/injection, schedule: Q01DX001 (ip), vehicle: carboxymethylcellulose (CMC)) 115 % of control; (dose: 8.5 mg/kg/injection, schedule: Q01DX001 (ip), vehicle: carboxymethylcellulose (CMC)) 117 % of control; (dose: 10.0 mg/kg/injection, schedule: Q01DX001 (ip), vehicle: carboxymethylcellulose (CMC)) 110 % of control; (dose: 13.0 mg/kg/injection, schedule: Q01DX001 (ip), vehicle: carboxymethylcellulose (CMC)) 117 % of control. In addition, the T/C runs as follows: (dose: 15.0 mg/kg/injection, schedule: Q01DX001 (ip), vehicle: carboxymethylcellulose (CMC)) 116 % of control; (dose: 15.0 mg/kg/injection, schedule: Q01DX009 (ip), vehicle: carboxymethylcellulose (CMC)) 152 % of control; (dose: 20.0 mg/kg/injection, schedule: Q01DX001 (ip), vehicle: carboxymethylcellulose (CMC)) 122 % of control; (dose: 22.5 mg/kg/injection, schedule: Q01DX009 (ip), vehicle: carboxymethylcellulose (CMC)) 113 % of control; (dose: 30.0 mg/kg/injection, schedule: Q01DX001 (ip), vehicle: carboxymethylcellulose (CMC)) 122 % of control.

Turning to `CC(C)C1(C(C)C)OCC(CO)O1` (stereo not drawn), the T/C (dose: 25.0 mg/kg/injection, schedule: Q01DX009 (ip), vehicle: saline) is 93 % of control; the T/C (dose: 25.0 mg/kg/injection, schedule: Q04DX003 (ip), vehicle: saline) was 100 % of control; the T/C (dose: 50.0 mg/kg/injection, schedule: Q01DX009 (ip), vehicle: saline) is 102 % of control; the T/C (dose: 50.0 mg/kg/injection, schedule: Q04DX003 (ip), vehicle: saline) is 94 % of control; the T/C (dose: 100.0 mg/kg/injection, schedule: Q01DX009 (ip), vehicle: saline) was 104 % of control; the T/C under setting [8] is 94 % of control. Moreover, the T/C was 102 % of control (dose: 200.0 mg/kg/injection, schedule: Q01DX009 (ip), vehicle: saline); 102 % of control under setting [9]; 104 % of control (dose: 400.0 mg/kg/injection, schedule: Q01DX009 (ip), vehicle: saline); 100 % of control under setting [10].

In the case of `O=C1Cc2ncccc2N1`, the T/C under setting [5] is 107 % of control, the T/C under setting [6] was 100 % of control and the T/C under setting [7] was 114 % of control.
